Measured values taken from patent publication US12109184B2, “Personalized methods of treating cancer” (CANCER RESEARCH TECHNOLOGY LIMITED, priority 2020, dated 2024).

Experiments:
Assay type in all cases: cell-based
[1] = system: MTAP-deleted HCT116 cells; assay: Cell counting during cysteine starvation, MTAP-deleted HCT116; details: SMOX inhibitor, PAOX inhibitor or MTOB supplementation
Description: [NT] Successfully transfected cells were selected with puromycin and grown as clonal colonies. Clones were selected based initially on MTA efflux measured by liquid chromatography mass spectrometry (LC-MS). Clones with greatest MTA efflux were selected, and methylthioadenosine phosphorylase knockout (MTAP-KO) was then confirmed by western blot. MTAP-KO HCT116 cells were transfected with pCMV-Hygro-MTAP and pCMV-Hygro-negative control vector, selected using hygromycin B, and grown as clonal colonies. Clones were selected based initially on MTA efflux measured by LC-MS. Clones with low MTA efflux were selected, then MTAP re-expression was confirmed by western blot. […] DAPI-stained cell nuclei were detected via microscopy. […] For experiments using spermine oxidase (SMOX) and polyamine oxidase (PAOX) inhibitors or MTOB, cells were pre-treated with stated concentrations for 16 hours in complete medium. After pre-treatment, cells were washed in PBS, and treatment was continued in complete or cysteine-free medium for stated times. After treatment was finished, cells were fixed and stained as described above. For experiments using MTA, polyamines, GPX4 and CSE inhibitors, treatment started at the same time as cysteine starvation. For experiments involving hypoxic conditions, cells were seeded in normoxic conditions and allowed to adhere for 24 hours before control and cysteine starvation medium was added and cells were immediately transferred either to a humidified cell culture incubator set to 37° C. in 20% O2 (normoxia), or a hypoxia chamber set to 37° C. in 1% O2 (hypoxia) for the stated times. Cells were fixed immediately and stained as described above.

[2] = system: MTAP-expressing HCT116 cells; assay: Cell counting during cysteine starvation, MTAP-expressing HCT116; details: SMOX inhibitor, PAOX inhibitor or MTOB supplementation
Description: [NT] Successfully transfected cells were selected with puromycin and grown as clonal colonies. Clones were selected based initially on MTA efflux measured by liquid chromatography mass spectrometry (LC-MS). Clones with greatest MTA efflux were selected, and methylthioadenosine phosphorylase knockout (MTAP-KO) was then confirmed by western blot. MTAP-KO HCT116 cells were transfected with pCMV-Hygro-MTAP and pCMV-Hygro-negative control vector, selected using hygromycin B, and grown as clonal colonies. Clones were selected based initially on MTA efflux measured by LC-MS. Clones with low MTA efflux were selected, then MTAP re-expression was confirmed by western blot. […] DAPI-stained cell nuclei were detected via microscopy. For experiments using spermine oxidase (SMOX) and polyamine oxidase (PAOX) inhibitors or MTOB, cells were pre-treated with stated concentrations for 16 hours in complete medium. After pre-treatment, cells were washed in PBS, and treatment was continued in complete or cysteine-free medium for stated times. After treatment was finished, cells were fixed and stained as described above. For experiments using MTA, polyamines, GPX4 and CSE inhibitors, treatment started at the same time as cysteine starvation. For experiments involving hypoxic conditions, cells were seeded in normoxic conditions and allowed to adhere for 24 hours before control and cysteine starvation medium was added and cells were immediately transferred either to a humidified cell culture incubator set to 37° C. in 20% O2 (normoxia), or a hypoxia chamber set to 37° C. in 1% O2 (hypoxia) for the stated times. Cells were fixed immediately and stained as described above.

[3] = system: breast, colorectal and pancreatic cancer cell lines; assay: Cell counting in complete or cysteine-free medium, cell lines not given
Experimental: (§1) The base medium formulation contained 0.2 mM L-histidine, 0.4 mM L-isoleucine, 0.4 mM L-leucine, 0.4 mM L-lysine, 0.2 mM L-phenylalanine, 0.4 mM L-threonine, 0.08 mM L-tryptophan, 0.4 mM L-valine, 0.2 mM L-arginine, 2 mM L-glutamine, 0.2 mM L-tyrosine, 0.4 mM L-alanine, 0.3 mM L-proline, 0.15 mM L-glutamic acid, 0.1 mM L-aspartic acid, 0.2 mM L-asparagine, and 0.4 mM glycine.
(§2) DAPI-stained cell nuclei were detected via microscopy.
(§3) AMD1 inhibitor sardomozide/SAM486A, GPX4 inhibitor RSL3, and CSE inhibitor beta-cyano-L-alanine were used.
(§4) For experiments using spermine oxidase (SMOX) and polyamine oxidase (PAOX) inhibitors or MTOB, cells were pre-treated with stated concentrations for 16 hours in complete medium. After pre-treatment, cells were washed in PBS, and treatment was continued in complete or cysteine-free medium for stated times. After treatment was finished, cells were fixed and stained as described above. For experiments using MTA, polyamines, GPX4 and CSE inhibitors, treatment started at the same time as cysteine starvation. For experiments involving hypoxic conditions, cells were seeded in normoxic conditions and allowed to adhere for 24 hours before control and cysteine starvation medium was added and cells were immediately transferred either to a humidified cell culture incubator set to 37° C. in 20% O2 (normoxia), or a hypoxia chamber set to 37° C. in 1% O2 (hypoxia) for the stated times. Cells were fixed immediately and stained as described above.

[4] = system: MDA-MB-231, PANC-1, and MIAPaCa-2 cells; assay: LC-MS analysis with labelled methionine (polyamine and TsP labelling); details: 20 μM sardomozide or 0.1 mM MTOB
Experimental: For experiments using labelled methionine, the same basic protocol was used as described for the steady state metabolite measurements described above. Experimental media were formulated lacking methionine or serine (described above) and supplemented with the stated concentrations of ^13C5^15N1-methionine, ^13C3^15N1-serine or ^34S1-methionine. Metabolites were extracted as described above.
(§5) Prepared samples were analyzed on an LC-MS platform consisting of an Accela™ 600 LC system and an Exactive™ mass spectrometer. A Sequant® ZIC®-HILIC column (4.6 mm×150 mm, 3.5 μm) was used to separate the metabolites with the mobile phase using A=0.1% (v/v) formic acid in water and B=0.1% (v/v) formic acid in acetonitrile. A gradient program starting at 20% of A and linearly increasing to 80% at 30 min was used followed by washing (92% of A for 5 mins) and re-equilibration (20% of A for 10 min) steps. The total run time of the method was 45 min. The LC stream was desolvated and ionized in the HESI probe. The Exactive™ mass spectrometer was operated in full scan mode over a mass range of 70-1,200 m/z at a resolution of 50,000 with polarity switching. The LC-MS raw data was converted into mzML files by using ProteoWizard and imported to MZMine 2.10 for peak extraction and sample alignment. An in-house database including all possible ^13C and ^15N isotopic m/z values of the relevant metabolites was used for the assignment of LCMS signals. Finally the peak areas were used for comparative quantification.

[5] = system: SW480 and MDA-MB-231 cells; assay: Cell counting, rescue by cysteine precursors during cysteine starvation; details: supplement at 0.2 mM
Experimental: HCT116, SW480, MDA-MB-468, MDA-MB-231, AsPC-1, BxPC-3, CFPAC-1, MIAPaCa-2, PANC-1, Panc10.05, SW1990, U-251, LN-18, LN-229, T98G, U-343, A-172 cells were used. Cell lines were authenticated using Short Tandem Repeat (STR) profiling and tested for mycoplasma. Colorectal and breast cancer cell lines were grown in Dulbecco's Modified Eagle Medium (DMEM), pancreatic ductal adenocarcinoma (PDAC) cell lines were grown in Roswell Park Memorial institute (RPMI) 1640. All cell lines were supplemented with penicillin-streptomycin, amphotericin, 2 mM L-glutamine, and 10% fetal bovine serum (FBS). Cells were kept at 37° C. in 5% CO2 in a humidified cell culture incubator. A formulated medium lacking cysteine, cystine, methionine, and serine was used as a base for creating experimental media. The base medium formulation contained 0.2 mM L-histidine, 0.4 mM L-isoleucine, 0.4 mM L-leucine, 0.4 mM L-lysine, 0.2 mM L-phenylalanine, 0.4 mM L-threonine, 0.08 mM L-tryptophan, 0.4 mM L-valine, 0.2 mM L-arginine, 2 mM L-glutamine, 0.2 mM L-tyrosine, 0.4 mM L-alanine, 0.3 mM L-proline, 0.15 mM L-glutamic acid, 0.1 mM L-aspartic acid, 0.2 mM L-asparagine, and 0.4 mM glycine. The base medium was supplemented with 10% dialyzed FBS, penicillin-streptomycin, and amphotericin. To ensure an adequate supply of vitamin B6 (a crucial co-factor for de novo cysteine synthesis), base medium was supplemented with additional 20 μM vitamin B6. The control experimental medium was the base medium supplemented with 0.4 mM L-cysteine, 0.2 mM L-methionine, and 0.4 mM L-serine. The cysteine starvation (−Cys) experimental medium was base medium supplemented with 0.2 mM L-methionine and 0.4 mM L-serine.
Cells were seeded at 6×10^4 cells per well into 24-well plates (triplicate wells per condition) in the relevant complete medium and adhered for a full 24-hour period. A ‘time-0’ plate was included to record the starting cell number to calculate relative cell numbers. Cells were washed once with phosphate-buffered saline (PBS) before receiving experimental medium containing or lacking the specified amino acids, metabolites, or drugs. At the stated time-points the medium was removed, cells were fixed in a 4% formalin-PBS solution. Cells were then washed and stored in PBS before staining with 4′,6-diamidino-2-phenylindole (DAPI)-Triton™ X100-PBS solution for 1 hour, followed by storage in PBS at 4° C. until further analysis. DAPI-stained cell nuclei were detected via microscopy.
Homocysteine, cystathionine, glutathione, putrescine, spermine, spermidine, GPX4 inhibitor ML210, SMOX inhibitor MDL 72527, PAOX inhibitor diminazene aceturate, ferrostatin-1 and erastin were used. AMD1 inhibitor sardomozide/SAM486A, GPX4 inhibitor RSL3, and CSE inhibitor beta-cyano-L-alanine were used. […]

MDA-MB-231 cells = assay: Steady state metabolite measurements by LC-MS; details: medium lacking cysteine, supplement 0.2 mM
Experimental: as §5, with “Metabolomics experiments were performed as follows. Cells were seeded into 6-well plates (5×10^5-1.5×10^6 cells/mL, depending on time-course, triplicate wells per condition) in complete medium and adhered overnight. Cells were washed with PBS, and the relevant experimental media were added for the stated times. Duplicate wells were used for cell counting. Cell counts were used to normalize the volume of lysis solvent prior to metabolite extractions (2×10^6 cells/mL). Cells were washed quickly in PBS, then ice-cold lysis solvent (methanol 50%, acetonitrile 30%, water 20%) was added, and cells were scraped on ice. Lysates were transferred to 1.5 mL tubes on ice, vortexed, then spun by centrifugation at 15,000 rpm at 4° C. for 10 minutes. Supernatants were collected and stored at -80° C. for LC-MS analysis. Prepared” for “Prepared”, “Accela™ 600 LC” left out, “ExactiveTM” for “Exactive™”

[6] = system: HCT116, SW480 and MDA-MB-468 cells; assay: Cell counting during cysteine starvation, starvation-resistant cell lines
Experimental: as §1, §2, §3, §4

[7] = system: MDA-MB-231, MIAPaCa-2 and PANC-1 cells; assay: Cell counting during cysteine starvation, starvation-sensitive cell lines; details: SMOX inhibitor 50 μM or PAOX inhibitor 10, 40, 80 μM; 16 h pre-treatment then −Cys
Experimental: as §1, §2, §3, §4

SMILES	cell survival during cysteine starvation [1]	impact on cell survival during cysteine starvation [2]	rescue from cysteine starvation ([3]; 0.1 mM MTOB 16 h pre-treatment, then −Cys with MTOB 32 h)	duration of rescue from cysteine starvation ([3]; AMD1 inhibitor or MTOB supplementation)	levels of TsP intermediates [4]	polyamine synthesis (dc-SAM and polyamine labelling) [4]	rescue of survival/proliferation during cysteine starvation [5]	intracellular cysteine levels (MDA-MB-231 cells)	intracellular homocysteine and cystathionine levels (MDA-MB-231 cells)	intracellular γ-glutamylcysteine and GSH levels (MDA-MB-231 cells)	rescue from cysteine starvation-induced cell death (summary in discussion) ([3]; supplementation during cysteine starvation)	cell survival and growth under polyamine treatment concurrent with cysteine starvation ([6]; SMOX and PAOX inhibitors with spermidine or spermine, −Cys)	advantage during cysteine starvation ([6]; SMOX or PAOX inhibitor, 16 h pre-treatment then −Cys)	cell death during cysteine starvation [7]
CSCCC(=O)C(=O)O [MTOB, 4-methylthio-2-oxobutanoic acid]	rescued cell survival	little impact	rescued cells from cysteine starvation	temporary	did not appreciably increase	marked inhibition of polyamine synthesis								
N[C@@H](CCSC[C@H](N)C(=O)O)C(=O)O [cystathionine]							substantial rescue	moderate increases	significantly increased	more marked increases	rescued from starvation-induced cell death			
CC(=O)NCC(=O)O.CC(=O)NCC(=O)O.N=C(N)c1ccc(N=NNc2ccc(C(=N)N)cc2)cc1 [diminazene aceturate]	rescued cell survival	little impact										restored HCT116, SW480, and MDA-MB-468 cell survival and growth	little or no additional advantage	prevented cell death
